Patent US20240425491A1, “HETEROARYL COMPOUNDS USEFUL IN THE TREATMENT OF COGNITIVE DISORDERS” (University College Cardiff Consultants Limited, priority 2021, published 2024)

Key:
[1] = molecular target: T1, human recombinant GABAAR containing α5β3γ2 subunits (benzodiazepine site) (Homo sapiens, UniProt P18507+P31644); assay: In vitro radioligand binding assay (α5-GABAAR Ki); settings: inhibition of [3H]Ro15-1788 binding, membranes of L(tk−) cells expressing human α5β3γ2; read-out: α5-GABAAR Ki
T1 construct: expressed in transfected cells; host or cells: mouse L(tk−) cells, dexamethasone-inducible vector pMSGneo
T1 sequence (P31644 32-462): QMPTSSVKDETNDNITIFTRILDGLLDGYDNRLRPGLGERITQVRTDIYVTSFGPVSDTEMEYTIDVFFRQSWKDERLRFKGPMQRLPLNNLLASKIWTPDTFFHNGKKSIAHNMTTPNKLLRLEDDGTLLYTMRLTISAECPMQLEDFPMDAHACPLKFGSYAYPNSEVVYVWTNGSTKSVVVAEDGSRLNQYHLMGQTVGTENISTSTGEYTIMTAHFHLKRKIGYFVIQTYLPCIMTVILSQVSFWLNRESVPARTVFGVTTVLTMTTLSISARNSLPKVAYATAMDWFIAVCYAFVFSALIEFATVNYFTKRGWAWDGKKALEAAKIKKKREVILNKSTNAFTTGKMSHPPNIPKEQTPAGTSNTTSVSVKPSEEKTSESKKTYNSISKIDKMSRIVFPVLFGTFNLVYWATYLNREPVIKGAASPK
T1 sequence (P28472 26-473 partner): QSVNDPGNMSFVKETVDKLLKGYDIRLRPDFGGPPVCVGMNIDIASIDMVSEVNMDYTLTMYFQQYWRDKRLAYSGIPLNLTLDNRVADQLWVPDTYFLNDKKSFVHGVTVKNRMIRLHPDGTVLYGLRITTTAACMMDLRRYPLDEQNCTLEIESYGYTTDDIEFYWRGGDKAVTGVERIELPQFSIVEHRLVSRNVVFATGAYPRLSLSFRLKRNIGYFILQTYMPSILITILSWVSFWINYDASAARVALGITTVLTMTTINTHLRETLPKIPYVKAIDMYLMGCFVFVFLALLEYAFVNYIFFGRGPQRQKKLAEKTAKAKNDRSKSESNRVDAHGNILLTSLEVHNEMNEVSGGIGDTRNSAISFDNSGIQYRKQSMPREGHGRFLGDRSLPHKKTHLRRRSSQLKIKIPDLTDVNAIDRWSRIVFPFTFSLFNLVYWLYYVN
T1 sequence (P18507 40-475): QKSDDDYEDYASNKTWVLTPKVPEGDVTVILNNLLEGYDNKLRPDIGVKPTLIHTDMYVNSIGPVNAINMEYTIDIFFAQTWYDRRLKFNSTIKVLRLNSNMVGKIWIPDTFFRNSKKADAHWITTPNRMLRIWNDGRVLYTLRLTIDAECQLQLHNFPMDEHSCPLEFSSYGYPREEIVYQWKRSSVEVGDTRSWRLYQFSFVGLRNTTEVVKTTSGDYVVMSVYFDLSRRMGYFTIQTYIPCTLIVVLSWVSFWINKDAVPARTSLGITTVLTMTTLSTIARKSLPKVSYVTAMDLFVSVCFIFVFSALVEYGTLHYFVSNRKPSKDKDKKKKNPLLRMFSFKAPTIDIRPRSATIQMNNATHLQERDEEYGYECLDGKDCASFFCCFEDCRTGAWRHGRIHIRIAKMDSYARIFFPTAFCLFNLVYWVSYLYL
Procedure, shortened: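 Displacement of 4 nM [^3H]flumazenil from the benzodiazepine site, read by filtration and scintillation, gave IC50, converted to Ki (Cheng-Prusoff, saturation-derived Kd). Receptor: human α5β3γ2 membranes from L(tk^−) cells, 50 μg protein/well; 1 h, 4° C; TP003 1 μM defined nonspecific binding.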

[2] = molecular target: T2, human α5β3γ2 GABAARs in mouse L(tk−) cells (Homo sapiens, UniProt P18507+P31644); assay: In vitro electrophysiological recording assay (α5-GABAAR relative efficacy), QPatch; assay type: cell-based; settings: GABA EC10-20
T2 construct: expressed in transfected cells; host or cells: mouse L(tk−) cells, dexamethasone-inducible vector pMSGneo
T2 sequence (P31644 32-462): as the sequence (P31644 32-462) above
T2 sequence (P28472 26-473 partner): as the sequence (P28472 26-473 partner) above
T2 sequence (P18507 40-475): as the sequence (P18507 40-475) above
Procedure, shortened: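 Whole-cell QPatch recordings at 20-22° C, −65 mV holding, in dexamethasone-induced (1 μM, 24 h) L(tk−) cells. Compound pre-applied ≥1 min, then co-applied with GABA EC10-20; percentage change in leak-corrected peak current, taken at ≥100× Ki, normalised to DMCM efficacy; 0.1% DMSO final.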

Structure (SMILES) | Ki [1] | α5-GABAAR Relative Efficacy (to DMCM), Qpatch ([2]; Conc 0.3 μM) | further results
COc1nc(-n2cncn2)ccc1NC(=O)c1c(-c2ccccc2)noc1C [Example 46, N-[2-Methoxy-6-(1,2,4-triazol-1-yl)-3-pyridyl]-5-methyl-3-phenyl-isoxazole-4-carboxamide] | 4.4 nM | – | α5-GABAAR Relative Efficacy (to DMCM), Qpatch ([2]; Conc 1 μM): −0.69
COc1nc(-c2cnc(C(N)=O)nc2)ccc1NC(=O)c1c(C)nnn1-c1ccccc1 [Example 165, 5-(6-Methoxy-5-(4-methyl-1-phenyl-1H-1,2,3-triazole-5-carboxamido)pyridin-2-yl)pyrimidine-2-carboxamide] | 35.4 nM | – | α5-GABAAR Relative Efficacy (to DMCM), Qpatch ([2]; Conc 3 μM): −0.84
COc1nc(-n2ccnc2)ncc1NC(=O)c1c(-c2ccccc2)noc1C [Example 3, N-(2-Imidazol-1-yl-4-methoxy-pyrimidin-5-yl)-5-methyl-3-phenyl-isoxazole-4-carboxamide] | 32.8 nM | – | α5-GABAAR Relative Efficacy (to DMCM), Qpatch ([2]; Conc 1 μM): −0.69
COc1nc(-c2c[nH]c(=O)c(F)c2)ccc1NC(=O)c1c(C)nnn1-c1ccccc1 [Example 164, N-(5′-Fluoro-6-methoxy-6′-oxo-1′,6′-dihydro-[2,3′-bipyridin]-5-yl)-4-methyl-1-phenyl-1H-1,2,3-triazole-5-carboxamide] | 27.2 nM | – | α5-GABAAR Relative Efficacy (to DMCM), Qpatch ([2]; Conc 3 μM): −0.65
COc1nc(-c2ncco2)ccc1NC(=O)c1c(-c2ccccc2)noc1C [Example 123, N-(2-Methoxy-6-oxazol-2-yl-3-pyridyl)-5-methyl-3-phenyl-isoxazole-4-carboxamide] | 11.8 nM | – | α5-GABAAR Relative Efficacy (to DMCM), Qpatch ([2]; Conc 3 μM): −0.48
COc1nc(-c2ccncc2)ccc1NC(=O)c1c(-c2ccccc2)noc1C [Example 42, N-(6-Methoxy-[2,4′-bipyridin]-5-yl)-5-methyl-3-phenylisoxazole-4-carboxamide] | 2.8 nM | −0.60 | –
COc1nc(-c2c(C)noc2C)ccc1NC(=O)c1c(-c2ccccc2)noc1C [Example 6, N-[6-(3,5-Dimethylisoxazol-4-yl)-2-methoxy-3-pyridyl]-5-methyl-3-phenyl-isoxazole-4-carboxamide] | 33.1 nM | – | α5-GABAAR Relative Efficacy (to DMCM), Qpatch ([2]; Conc 10 μM): −0.22
COc1nc(-c2cnc(OCC(F)(F)F)nc2)ccc1NC(=O)c1c(-c2ccccc2)noc1C [Example 59, N-[2-Methoxy-6-[2-(2,2,2-trifluoroethoxy)pyrimidin-5-yl]-3-pyridyl]-5-methyl-3-phenyl-isoxazole-4-carboxamide] | 10.4 nM | – | α5-GABAAR Relative Efficacy (to DMCM), Qpatch ([2]; Conc 3 μM): −0.75
COc1nc(-c2cncn2C)ccc1NC(=O)c1c(-c2ccccc2)noc1C [Example 132, N-[2-Methoxy-6-(3-methylimidazol-4-yl)-3-pyridyl]-5-methyl-3-phenyl-isoxazole-4-carboxamide] | 4 nM | – | α5-GABAAR Relative Efficacy (to DMCM), Qpatch ([2]; Conc 1 μM): −0.52
COc1nc(-c2ccc(=O)n(C)c2)ccc1NC(=O)c1c(-c2ccccc2)noc1C [Example 28, N-[2-Methoxy-6-(1-methyl-6-oxo-3-pyridyl)-3-pyridyl]-5-methyl-3-phenyl-isoxazole-4-carboxamide] | 5.2 nM | – | α5-GABAAR Relative Efficacy (to DMCM), Qpatch ([2]; Conc 1 μM): −0.61
CCOc1ncc(-c2ccc(NC(=O)c3c(-c4ccccc4)noc3C)c(OC)n2)cn1 [Example 48, N-[6-(2-Ethoxypyrimidin-5-yl)-2-methoxy-3-pyridyl]-5-methyl-3-phenyl-isoxazole-4-carboxamide] | 2.7 nM | −0.90 | –
COc1nc(-c2ccc(=O)n(C)c2)cnc1NC(=O)c1c(-c2ccccc2)noc1C [Example 149, N-[3-Methoxy-5-(1-methyl-6-oxo-3-pyridyl)pyrazin-2-yl]-5-methyl-3-phenyl-isoxazole-4-carboxamide] | 5.2 nM | – | α5-GABAAR Relative Efficacy (to DMCM), Qpatch ([2]; Conc 1 μM): −0.66
COCc1ncc(-c2ccc(NC(=O)c3c(-c4ccccc4)noc3C)c(OC)n2)cn1 [Example 125, N-[2-Methoxy-6-[2-(methoxymethyl)pyrimidin-5-yl]-3-pyridyl]-5-methyl-3-phenyl-isoxazole-4-carboxamide] | 2.5 nM | −0.84 | –
COc1nc(-c2nnco2)ccc1NC(=O)c1c(-c2ccccc2)noc1C [Example 58, N-[2-Methoxy-6-(1,3,4-oxadiazol-2-yl)-3-pyridyl]-5-methyl-3-phenyl-isoxazole-4-carboxamide] | 18.1 nM | – | α5-GABAAR Relative Efficacy (to DMCM), Qpatch ([2]; Conc 3 μM): −0.79
COc1nc(-c2cnc(OCCN(C)C)nc2)ccc1NC(=O)c1c(-c2ccccc2)noc1C [Example 163, N-[6-[2-[2-(Dimethylamino)ethoxy]pyrimidin-5-yl]-2-methoxy-3-pyridyl]-5-methyl-3-phenyl-isoxazole-4-carboxamide] | 4.1 nM | – | α5-GABAAR Relative Efficacy (to DMCM), Qpatch ([2]; Conc 1 μM): −1.11
COc1nc(-c2cnc(N3CCCC(CO)C3)nc2)ccc1NC(=O)c1c(-c2ccccc2)noc1C (stereo not shown) [Example 92, N-(6-(2-(3-(Hydroxymethyl)piperidin-1-yl)pyrimidin-5-yl)-2-methoxypyridin-3-yl)-5-methyl-3-phenylisoxazole-4-carboxamide] | 3 nM | −0.66 | –
COc1nc(-n2cnc(CN(C)C)c2)ccc1NC(=O)c1c(-c2ccccc2)noc1C [Example 152, N-[6-[4-[(Dimethylamino)methyl]imidazol-1-yl]-2-methoxy-3-pyridyl]-5-methyl-3-phenyl-isoxazole-4-carboxamide] | 22.9 nM | – | α5-GABAAR Relative Efficacy (to DMCM), Qpatch ([2]; Conc 3 μM): −0.27
COc1nc(-n2ccnc2)ccc1NC(=O)c1c(-c2ccccc2)nnn1C [Example 154, N-(6-(1H-Imidazol-1-yl)-2-methoxypyridin-3-yl)-1-methyl-4-phenyl-1H-1,2,3-triazole-5-carboxamide] | 25.3 nM | – | α5-GABAAR Relative Efficacy (to DMCM), Qpatch ([2]; Conc 3 μM): −0.89

Molecules with a lower Ki [1], results first:

Ki [1] | α5-GABAAR Relative Efficacy (to DMCM), Qpatch ([2]; Conc 0.3 μM) | Structure (SMILES) | further results
1.2 nM | −0.65 | COc1nc(-c2cnc(N(C)C)nc2)ccc1NC(=O)c1c(-c2ccccc2)noc1C [Example 45, N-(6-(2-(Dimethylamino)pyrimidin-5-yl)-2-methoxypyridin-3-yl)-5-methyl-3-phenylisoxazole-4-carboxamide] | –
0.8 nM | – | COc1nc(-c2cnc3n2CCOC3)ccc1NC(=O)c1c(-c2ccccc2)noc1C [Example 79, N-[6-(6,8-Dihydro-5H-imidazo[2,1-c][1,4]oxazin-3-yl)-2-methoxy-3-pyridyl]-5-methyl-3-phenyl-isoxazole-4-carboxamide] | α5-GABAAR Relative Efficacy (to DMCM), Qpatch ([2]; Conc 0.1 μM): −0.76
0.5 nM | – | COc1nc(-c2ccc(NC(C)=O)nc2)cnc1NC(=O)c1c(-c2ccccc2)noc1C [Example 147, N-[5-(6-Acetamido-3-pyridyl)-3-methoxy-pyrazin-2-yl]-5-methyl-3-phenyl-isoxazole-4-carboxamide] | α5-GABAAR Relative Efficacy (to DMCM), Qpatch ([2]; Conc 0.1 μM): −0.67
0.7 nM | – | COC(=O)c1ncc(-c2ccc(NC(=O)c3c(-c4ccccc4)noc3C)c(OC)n2)cn1 [Example 70, Methyl 5-[6-methoxy-5-[(5-methyl-3-phenyl-isoxazole-4-carbonyl)amino]-2-pyridyl]pyrimidine-2-carboxylate] | α5-GABAAR Relative Efficacy (to DMCM), Qpatch ([2]; Conc 0.1 μM): −0.89
1.5 nM | −0.79 | COc1nc(-c2cnnn2C)ccc1NC(=O)c1c(-c2ccccc2)noc1C [Example 102, N-(2-Methoxy-6-(1-methyl-1H-1,2,3-triazol-5-yl)pyridin-3-yl)-5-methyl-3-phenyl-isoxazole-4-carboxamide] | –
1 nM | −0.85 | COc1nc(-c2cnc3cnccn23)ccc1NC(=O)c1c(-c2ccccc2)noc1C [Example 135, N-(6-(Imidazo[1,2-a]pyrazin-3-yl)-2-methoxypyridin-3-yl)-5-methyl-3-phenylisoxazole-4-carboxamide] | –
1.2 nM | −0.80 | COc1nc(-c2ccc(CO)nc2)cnc1NC(=O)c1c(-c2ccccc2)noc1C [Example 148, N-[5-[6-(Hydroxymethyl)-3-pyridyl]-3-methoxy-pyrazin-2-yl]-5-methyl-3-phenyl-isoxazole-4-carboxamide] | –
1.4 nM | −0.66 | COc1nc(-c2cncc(C(=O)N(C)C)c2)ccc1NC(=O)c1c(-c2ccccc2)noc1C [Example 95, N-(5′-(Dimethylcarbamoyl)-6-methoxy-[2,3′-bipyridin]-5-yl)-5-methyl-3-phenyl-isoxazole-4-carboxamide] | –
2.3 nM | −0.55 | COc1nc(-c2cnc(C(=O)N(C)C)nc2)ccc1NC(=O)c1c(-c2ccccc2)noc1C [Example 130, N-[6-[2-(Dimethylcarbamoyl)pyrimidin-5-yl]-2-methoxy-3-pyridyl]-5-methyl-3-phenyl-isoxazole-4-carboxamide] | –
0.3 nM | – | CNc1ncc(-c2cnc(NC(=O)c3c(-c4ccccc4)noc3C)c(OC)n2)cn1 [Example 145, N-[3-Methoxy-5-[2-(methylamino)pyrimidin-5-yl]pyrazin-2-yl]-5-methyl-3-phenyl-isoxazole-4-carboxamide] | α5-GABAAR Relative Efficacy (to DMCM), Qpatch ([2]; Conc 0.1 μM): −1.12
0.5 nM | – | COc1nc(-c2cnc(NCCO)nc2)ccc1NC(=O)c1c(-c2ccccc2)noc1C [Example 175, N-[6-[2-(2-Hydroxyethylamino)pyrimidin-5-yl]-2-methoxy-3-pyridyl]-5-methyl-3-phenyl-isoxazole-4-carboxamide] | α5-GABAAR Relative Efficacy (to DMCM), Qpatch ([2]; Conc 0.1 μM): −0.89
